# Values joined by “and” are separate entries in the source; they are usually repeats but may differ in a detail not shown here. Equal values may be shown once. Where a name gives a salt, the structure may show the parent alone.
# Key:
# [1] = test system: cells from the thymus of normal BALB/c mice (thymocyte proliferation); assay: comitogen-induced thymocyte proliferation procedure (LAF); type: cell-based; details: percent change in counts per minute from non-drug treated controls; for percent change in thymocyte proliferation (counts per minute) versus untreated control at 0.01 µM / percent change in thymocyte proliferation (counts per minute) versus untreated control at 0.1 µM: Mus musculus, 72 h, 72 h culture with PHA and IL-1; for percent change in thymocyte proliferation (counts per minute) versus untreated control at 0.01 µM: read-out: Percentage Inhibition in LAF Assay at 10 nM concentration, Analogs; for percent change in thymocyte proliferation (counts per minute) versus untreated control at 0.1 µM: read-out: Percentage Inhibition in LAF Assay at 100 nM concentration, Analogs
# Experimental: Briefly, cells from the thymus of normal BALB/c mice were cultured for 72 hours with PHA and IL-1 and pulsed with tritiated thymidine during the last six hours. Cells are cultured with and without various concentrations of rapamycin, cyclospofin A, or test compound. Cells are harvested and incorporated; radioactivity is determined. Inhibition of lymphoproliferation is assessed in percent change in counts per minute from non-drug treated controls.
# [2] = test system: pinch skin graft from male BALB/c donors transplanted to male C3H recipients; assay: skin graft assay (survival time of pinch skin graft); type: in vivo, mouse (BALB/c donors; details: intraperitoneally once daily for 6 consecutive days; rejection = 95% area necrosis or suture line off; typically rejected within 6-7 days without immunosuppressive agent
# Experimental: The second in vivo test procedure is designed to determine the survival time of pinch skin graft from male BALB/c donors transplanted to male C3H recipients. The method is adapted from Billingham R. E. and Medawar P. B., J. Exp. Biol. 28:385-402, (1951). Briefly, a pinch skin graft from the donor is grafted on the dorsum of the recipient as an allograft and an isograft is used as control in the same region. The recipients are treated with the test compound, intraperitoneally once daily for 6 consecutive days. Untreated recipients serve as rejection control. The graft is monitored daily and observations are recorded until the graft becomes 95% area necrosis or the suture line is off. This is considered as the rejection day. The graft survival time is one day before the rejection day. The mean graft survival time (number of days ±S.D.) of the drug treatment group is compared with the control group.
# [3] = test system: experimental allergic encephalomyelitis model, a model for multiple sclerosis; details: in vivo; cited from earlier work
# [4] = test system: formation of IgE-like antibodies; details: cited from earlier work
# [5] = alone or in combination with picibanil; cited from earlier work
# [6] = test system: adjuvant arthritis model, a model for rheumatoid arthritis; details: in vivo; cited from earlier work
# Candida albicans = details: particularly against Candida albicans, both in vitro and in vivo; cited from earlier work
smiles,measurement,setting,value
"CO[C@H]1C[C@@H]2CC[C@@H](C)[C@@](O)(O2)C(=O)C(=O)N2CCCC[C@H]2C(=O)O[C@H]([C@H](C)C[C@@H]2CC[C@@H](OS(=O)(=O)c3ccc(C)cc3)[C@H](OC)C2)CC(=O)[C@H](C)/C=C(\C)[C@@H](OC(=O)CN(C)C)[C@@H](OC)C(=O)[C@H](C)C[C@H](C)/C=C/C=C/C=C/1C [Example 1, Rapamycin 31-Ester With N,N-dimethylglycine HCl Salt 42-Ester With p-toluenesulfonic Acid]",percent change in thymocyte proliferation (counts per minute) versus untreated control at 0.01 µM,[1]; 10 nM,-6%
same,percent change in thymocyte proliferation (counts per minute) versus untreated control at 0.1 µM,[1]; 100 nM,-74%
"CO[C@H]1C[C@@H]2CC[C@@H](C)[C@@](O)(O2)C(=O)C(=O)N2CCCC[C@H]2C(=O)O[C@H]([C@H](C)C[C@@H]2CC[C@@H](OC(C)=O)[C@H](OC)C2)CC(=O)[C@H](C)/C=C(\C)[C@@H](OC(=O)CN(C)C)[C@@H](OC)C(=O)[C@H](C)C[C@H](C)/C=C/C=C/C=C/1C [Example 2, Rapamycin 31-Ester With N,N-dimethylglycine HCl Salt 42-Ester With Acetic Acid]",percent change in thymocyte proliferation (counts per minute) versus untreated control at 0.01 µM,[1]; 10 nM,-59%
same,percent change in thymocyte proliferation (counts per minute) versus untreated control at 0.1 µM,[1]; 100 nM,-96%
"CO[C@H]1C[C@@H]2CC[C@@H](C)[C@@](O)(O2)C(=O)C(=O)N2CCCC[C@H]2C(=O)O[C@H]([C@H](C)C[C@@H]2CC[C@@H](OC(=O)Nc3ccccc3)[C@H](OC)C2)CC(=O)[C@H](C)/C=C(\C)[C@@H](OC(=O)CN(C)C)[C@@H](OC)C(=O)[C@H](C)C[C@H](C)/C=C/C=C/C=C/1C [Example 3, Rapamycin 31-Ester With N,N-dimethylglycine HCl Salt 42-Ester With Phenylcarbamic Acid]",percent change in thymocyte proliferation (counts per minute) versus untreated control at 0.01 µM,[1]; 10 nM,-14%
same,percent change in thymocyte proliferation (counts per minute) versus untreated control at 0.1 µM,[1]; 100 nM,-82%
"CO[C@H]1C[C@@H]2CC[C@@H](C)[C@@](O)(O2)C(=O)C(=O)N2CCCC[C@H]2C(=O)O[C@H]([C@H](C)C[C@@H]2CC[C@@H](OC(=O)Nc3ccc(F)cc3)[C@H](OC)C2)CC(=O)[C@H](C)/C=C(\C)[C@@H](OC(=O)CN(C)C)[C@@H](OC)C(=O)[C@H](C)C[C@H](C)/C=C/C=C/C=C/1C [Example 4, Rapamycin 31-Ester With N,N-dimethylglycine HCl Salt 41-Ester With 4-fluorophenyl Carbamic Acid]",percent change in thymocyte proliferation (counts per minute) versus untreated control at 0.01 µM,[1]; 10 nM,-38%
same,percent change in thymocyte proliferation (counts per minute) versus untreated control at 0.1 µM,[1]; 100 nM,-94%
same,"Skin Graft Assay, Analogs (mean graft survival time, days ± SD)",[2],8.17 ± 0.41 days
"CO[C@H]1C[C@@H]2CC[C@@H](C)[C@@](O)(O2)C(=O)C(=O)N2CCCC[C@H]2C(=O)O[C@H]([C@H](C)C[C@@H]2CC[C@@H](OC(=O)NS(=O)(=O)c3ccccc3)[C@H](OC)C2)CC(=O)[C@H](C)/C=C(\C)[C@@H](OC(=O)CN(C)C)[C@@H](OC)C(=O)[C@H](C)C[C@H](C)/C=C/C=C/C=C/1C [Example 5, Rapamycin 31-Ester With N,N-dimethylglycine HCl Salt 42-Ester With Phenylsulfonyl Carbamic Acid]",percent change in thymocyte proliferation (counts per minute) versus untreated control at 0.01 µM,[1]; 10 nM,1%
same,percent change in thymocyte proliferation (counts per minute) versus untreated control at 0.1 µM,[1]; 100 nM,-35%
same,"Skin Graft Assay, Analogs (mean graft survival time, days ± SD)",[2],10.00 ± 0.57 days
"CO[C@H]1C[C@@H]2CC[C@@H](C)[C@@](O)(O2)C(=O)C(=O)N2CCCC[C@H]2C(=O)O[C@H]([C@H](C)C[C@@H]2CC[C@@H](O)[C@H](OC)C2)CC(=O)[C@H](C)/C=C(\C)[C@@H](OC(=O)CN(C)C)[C@@H](OC)C(O)[C@H](C)C[C@H](C)/C=C/C=C/C=C/1C (stereo partly drawn) [Example 6, 33-Deoxy-33-hydroxyrapamycin 31-Ester With N,N-dimethylglycine HCl Salt]",percent change in thymocyte proliferation (counts per minute) versus untreated control at 0.01 µM,[1]; 10 nM,-13%
same,percent change in thymocyte proliferation (counts per minute) versus untreated control at 0.1 µM,[1]; 100 nM,-76%
same,"Skin Graft Assay, Analogs (mean graft survival time, days ± SD)",[2],9.50 ± 1.22 days
"CO[C@H]1C[C@@H]2CC[C@@H](C)[C@@](O)(O2)C(=O)C(=O)N2CCCC[C@H]2C(=O)O[C@H]([C@H](C)C[C@@H]2CC[C@@H](OS(=O)(=O)c3cccc4cccnc34)[C@H](OC)C2)CC(=O)[C@H](C)/C=C(\C)[C@@H](OC(=O)CN(C)C)[C@@H](OC)C(=O)[C@H](C)C[C@H](C)/C=C/C=C/C=C/1C [Example 7, Rapamycin 31-Ester With N,N-dimethylglycine 42-Ester With 8-quinolinesulfonic Acid]",percent change in thymocyte proliferation (counts per minute) versus untreated control at 0.01 µM,[1]; 10 nM,-62%
same,percent change in thymocyte proliferation (counts per minute) versus untreated control at 0.1 µM,[1]; 100 nM,-94%
same,"Skin Graft Assay, Analogs (mean graft survival time, days ± SD)",[2],9.33 ± 1.22 days
"CO[C@H]1C[C@@H]2CC[C@@H](C)[C@@](O)(O2)C(=O)C(=O)N2CCCC[C@H]2C(=O)O[C@H]([C@H](C)C[C@@H]2CC[C@@H](OS(=O)(=O)c3cccc4c(N(C)C)cccc34)[C@H](OC)C2)CC(=O)[C@H](C)/C=C(\C)[C@@H](OC(=O)CN(C)C)[C@@H](OC)C(=O)[C@H](C)C[C@H](C)/C=C/C=C/C=C/1C [Example 8, Rapamycin 31-Ester With N,N-dimethylglycine 42-Ester With 5-(dimethylamino)naphthalene-1-sulfonic Acid]",percent change in thymocyte proliferation (counts per minute) versus untreated control at 0.01 µM,[1]; 10 nM,13%
same,percent change in thymocyte proliferation (counts per minute) versus untreated control at 0.1 µM,[1]; 100 nM,-54%
CO[C@H]1C[C@@H]2CC[C@@H](C)[C@@](O)(O2)C(=O)C(=O)N2CCCC[C@H]2C(=O)O[C@H]([C@H](C)C[C@@H]2CC[C@@H](O)[C@H](OC)C2)CC(=O)[C@H](C)/C=C(\C)[C@@H](O)[C@@H](OC)C(=O)[C@H](C)C[C@H](C)/C=C/C=C/C=C/1C [Rapamycin],"Percentage Inhibition in LAF Assay at 10 nM concentration, Rapamycin","[1]; 10 nM, rapamycin comparator",-85% and -89%
same,"Percentage Inhibition in LAF Assay at 100 nM concentration, Rapamycin","[1]; 100 nM, rapamycin comparator, 0.1 µM",-97% and -96% and -94% and -95%
same,effect in the experimental allergic encephalomyelitis model,[3],effective
same,inhibition of the formation of IgE-like antibodies,[4],effectively inhibited
same,antitumor activity,[5],antitumor activity
same,effect in the adjuvant arthritis model,[6],effective
same,antifungal activity,Candida albicans,antifungal activity

# From patent US5349060A, “Rapamycin 31-ester with N,N-dimethylglycine derivatives useful as immunosuppressive agents” (American Home Products Corporation, priority 1993, dated 1994)
